The source of these data is ChEMBL document CHEMBL1136833, “Novel non-peptide inhibitors targeting death receptor-mediated apoptosis” (Bioorg Med Chem Lett, 2003).

The test system of assay [1] is Jurkat. The assay is described as follows: Effective dose to inhibit FasL-induced apoptosis in Jurkat cells (Type II); NE=no effect. The class given is functional, cell-based. As to conditions: Homo sapiens.
For assay [2], the system named is Jurkat. As to the kind of experiment: Effective dose to inhibit staurosporine-induced apoptosis in Jurkat cells (Type II); NE=no effect. The class given is functional, cell-based. As to conditions: Homo sapiens.
In assay [3] the test system is Jurkat. As to the kind of experiment: Cytotoxicity against Jurkat cell growth (Type II). The class given is functional, cell-based. As to conditions: Homo sapiens.
Assay [4] has as its system SKW 6.4. The assay is described as follows: Effective dose to inhibit FasL-induced apoptosis in SK W6.4 cells (Type I); NE=no effect. As to conditions: Homo sapiens. The class given is functional, cell-based.
The subject of assay [5] is SKW 6.4. The assay is described as follows: Effective dose to inhibit staurosporine-induced apoptosis in SK W6.4 cells (Type I); NE=no effect. The class given is functional, cell-based. As to conditions: Homo sapiens.
Assay [6] relates to SKW 6.4. The assay is described as follows: Cytotoxicity against SK W6.4 cell growth (Type I). As to conditions: Homo sapiens. The class given is functional, cell-based.
The test system of assay [7] is Jurkat. As to the kind of experiment: Effective dose to inhibit FasL-induced apoptosis in Jurkat cells (Type II). The class given is functional. As to conditions: Homo sapiens, read-out: ED50 (the source's name).
Assay [8] relates to Jurkat. As to the kind of experiment: Effective dose to inhibit staurosporine-induced apoptosis in Jurkat cells (Type II). The class given is functional. As to conditions: Homo sapiens, read-out: ED50 (the source's name).
Assay [9] deals with SKW 6.4. As to the kind of experiment: Effective dose to inhibit staurosporine-induced apoptosis in SK W6.4 cells (Type I). The class given is functional. As to conditions: Homo sapiens, read-out: ED50 (the source's name).
The subject of assay [10] is SKW 6.4. The assay is described as follows: Effective dose to inhibit FasL-induced apoptosis in SK W6.4 cells (Type I). The class given is functional. As to conditions: Homo sapiens, read-out: ED50 (the source's name).

The term IC50 denotes the point on the concentration scale where inhibition reaches its midpoint. Lower therefore signals inhibition by little substance.

Active and inactive are the calls of the source. The calls are words filed in the database; no cut-off is given here.

As for `C/C=C/C1=C(CO)C(=O)[C@H]2O[C@H]2C1=O`, the ED50 result in [1], in [2], in assay [4] and in assay [5] was “inactive” each time. For the same compound, the values for the IC50 in assay [3] and in [6] were 8 µM and 9 µM, respectively.
With `O=C1C=C(CO)[C@H](O)[C@H]2O[C@@H]12`, the EC50 in assay [7] is 18 µM; in [8], > 80 µM; in assay [9], > 80 µM; in [10], 10 µM. In addition, the IC50 in assay [3] and in assay [6] was > 80 µM in each case.
As to `C/C=C/C1=C(CO)[C@H](O)[C@H]2O[C@H]2C1=O`, the EC50 in assay [7] is 6 µM; in assay [8] it was > 80 µM; in assay [9], > 80 µM; in assay [10], 5 µM. The IC50 in [3] and in assay [6] was > 80 µM in each case.
For `C/C=C(\C)C1=C(CO)[C@H](O)[C@H]2O[C@H]2C1=O`, the EC50 in [7] is 10 µM; in [8], > 80 µM; in assay [9], > 80 µM; in assay [10] it was 10 µM. Moreover, the IC50 in assay [3] and in assay [6] was > 80 µM throughout.
As for `C/C=C/C1=C(CO)[C@H](OC)[C@H]2O[C@H]2C1=O`, the EC50 in assay [7] was 25 µM; in [8] it was > 80 µM; in assay [9], > 80 µM; in [10], 20 µM. Further, the IC50 in assay [3] and in assay [6] was > 80 µM in each case.
Consider `O=C1C(/C=C/c2ccccc2)=C(CO)[C@H](O)[C@H]2O[C@@H]12`, for which the ED50 entry in assay [1], in assay [2], in assay [4] and in [5] was “inactive” each time. Further, the IC50 is 20 µM in assay [3] and 30 µM in assay [6].
For the compound `CCCC/C=C/C1=C(CO)[C@H](O)[C@H]2O[C@H]2C1=O`, the ED50 entry in [1], in [2] and in assay [5] was “inactive” throughout. Besides, the IC50 amounted to 15 µM in assay [3] and 35 µM in assay [6]. In addition, in [10], the EC50 came out at 10 µM.
In the case of `CCCC/C=C/C1=C(CO)C(=O)[C@H]2O[C@H]2C1=O`, the ED50 entry in assay [1], in [2], in assay [4] and in assay [5] was “inactive” in each case. Moreover, the IC50 came to 10 µM in assay [3] and 7 µM in [6].
`C/C=C/C1=C(CO)[C@@H](O)[C@@H]2O[C@@H]2C1=O`: the EC50 in assay [7] is 25 µM; in [8] it was > 80 µM; in [9], > 80 µM; in assay [10], 20 µM. Besides, the IC50 stood at 60 µM in assay [3] and 80 µM in assay [6].
For the compound `C=CC1=C(CO)[C@H](O)[C@H]2O[C@H]2C1=O`, the EC50 in assay [7] was 6 µM; in [8], > 80 µM; in assay [9], > 80 µM; in assay [10], 4 µM. Further, the IC50 in assay [3] and in [6] was > 80 µM throughout.
